These are literature values, as cited in patent US9504685B2, “Method for treating a pulmonary hypertension condition” (Gilead Sciences, Inc., priority 2006, dated 2016).

Molecules are shown by their SMILES.

The target of one data set is T1, ETA receptor (Homo sapiens, UniProt P25101).
T1 sequence (P25101 21-427): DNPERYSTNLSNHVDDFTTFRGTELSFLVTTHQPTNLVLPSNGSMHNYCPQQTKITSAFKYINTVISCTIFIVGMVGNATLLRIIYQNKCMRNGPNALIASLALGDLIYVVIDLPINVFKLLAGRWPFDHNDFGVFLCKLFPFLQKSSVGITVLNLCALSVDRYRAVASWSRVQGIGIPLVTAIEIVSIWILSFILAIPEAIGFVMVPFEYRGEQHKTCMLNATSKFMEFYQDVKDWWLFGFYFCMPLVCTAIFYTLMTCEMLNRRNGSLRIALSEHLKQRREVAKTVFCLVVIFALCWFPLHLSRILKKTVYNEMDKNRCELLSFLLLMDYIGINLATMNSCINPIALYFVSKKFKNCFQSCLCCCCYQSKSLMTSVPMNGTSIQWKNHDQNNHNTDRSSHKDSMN
To be noted: read-out: affinity for the ETA receptor; cited from earlier work.

For the next data set, the system named is p450. To be noted: cited from earlier work.

As to `COC(c1ccccc1)(c1ccccc1)[C@H](Oc1nc(C)cc(C)n1)C(=O)O` [ambrisentan], the Ki at ETA receptor was ~12 pM. The “drug interactions (p450 induction or inhibition)” value in the data set on p450 is “no p450 induction or inhibition”.
